Laboratory results taken from ChEMBL document CHEMBL5154804, “Species-Selective Targeting of Fungal Hsp90: Design, Synthesis, and Evaluation of Novel 4,5-Diarylisoxazole Derivatives for the Combination Treatment of Azole-Resistant Candidiasis” (J Med Chem, 2022).

Experiments:
Type in all cases: functional
[1] = test system: Candida albicans; experiment: Synergistic antifungal activity against fluconazole-resistant Candida albicans 904 assessed as inhibition of fungal growth in presence of fluconazole by checker board microdilution assay; further: test concentration or dose not given here
[2] = test system: Candida albicans; experiment: Synergistic antifungal activity against fluconazole-resistant Candida albicans 100 assessed as inhibition of fungal growth in presence of fluconazole by checker board microdilution assay
[3] = test system: Candida albicans; experiment: Synergistic antifungal activity against fluconazole-resistant Candida albicans 103 assessed as inhibition of fungal growth in presence of fluconazole by checker board microdilution assay
[4] = test system: Candida albicans; experiment: Synergistic antifungal activity against fluconazole-resistant Candida albicans 901 assessed as inhibition of fungal growth in presence of fluconazole by checker board microdilution assay
[5] = test system: Candida albicans; experiment: Synergistic antifungal activity against fluconazole-resistant Candida albicans 311 assessed as inhibition of fungal growth in presence of fluconazole by checker board microdilution assay; further: test concentration or dose not given here
[6] = test system: Candida albicans; experiment: Synergistic antifungal activity against fluconazole-resistant Candida albicans 632 assessed as inhibition of fungal growth in presence of fluconazole by checker board microdilution assay

SMILES | MIC80 [1] | MIC80 [2] | MIC80 [3] | MIC80 [4] | MIC80 [5] | MIC80 [6]
CCNC(=O)c1noc(-c2cc(-c3cccc(OC(F)(F)F)c3)c(O)cc2O)c1-c1ccc(CN2CCOCC2)cc1 | > 64 mg/L | > 64 mg/L | > 64 mg/L | > 64 mg/L | > 64 mg/L | > 64 mg/L
CCNC(=O)c1noc(-c2cc(-c3ccccc3F)c(O)cc2O)c1-c1ccc(CN2CCOCC2)cc1 | > 64 mg/L | > 64 mg/L | > 64 mg/L | > 64 mg/L | > 64 mg/L | > 64 mg/L
Cc1ccc(-c2cc(-c3onc(C(=O)N(C)C)c3-c3ccc(CN4CCCCC4)cc3)c(O)cc2O)cc1 | 8 mg/L | 8 mg/L | 16 mg/L | 16 mg/L | 16 mg/L | 8 mg/L
CCNC(=O)c1noc(-c2cc(-c3ccccc3CC)c(O)cc2O)c1-c1ccc(CN2CCOCC2)cc1 | > 64 mg/L | > 64 mg/L | > 64 mg/L | > 64 mg/L | > 64 mg/L | > 64 mg/L
CCNC(=O)c1noc(-c2cc(-c3ccc(C(C)(C)C)cc3)c(O)cc2O)c1-c1ccc(CN2CCOCC2)cc1 | > 64 mg/L | > 64 mg/L | > 64 mg/L | > 64 mg/L | > 64 mg/L | > 64 mg/L
CCNC(=O)c1noc(-c2cc(-c3cccc(F)c3)c(O)cc2O)c1-c1ccc(CN2CCOCC2)cc1 | 1 mg/L | 8 mg/L | 16 mg/L | 2 mg/L | 4 mg/L | 2 mg/L
Cc1ccc(-c2cc(-c3onc(C(=O)NC4CCC4)c3-c3ccc(CN4CCCCC4)cc3)c(O)cc2O)cc1 | 2 mg/L | 2 mg/L | 4 mg/L | 4 mg/L | 2 mg/L | 1 mg/L
CCNC(=O)c1noc(-c2cc(-c3ccc(C)cc3)c(O)cc2O)c1-c1ccc(CN2CCNC(=O)C2)cc1 | > 64 mg/L | > 64 mg/L | > 64 mg/L | > 64 mg/L | > 64 mg/L | > 64 mg/L
CCNC(=O)c1noc(-c2cc(-c3ccc(C)cc3)c(O)cc2O)c1-c1ccc(CN2CCSCC2)cc1 | 8 mg/L | 2 mg/L | 1 mg/L | 0.5 mg/L | 2 mg/L | 0.5 mg/L
CCNC(=O)c1noc(-c2cc(-c3ccc(-c4ccccc4)cc3)c(O)cc2O)c1-c1ccc(CN2CCOCC2)cc1 | > 64 mg/L | > 64 mg/L | > 64 mg/L | > 64 mg/L | > 64 mg/L | > 64 mg/L
CCNC(=O)c1noc(-c2cc(-c3ccc(C)cc3)c(O)cc2O)c1-c1ccc(CNC2CCN(C)CC2)cc1 | 64 mg/L | 64 mg/L | 16 mg/L | 16 mg/L | 64 mg/L | 8 mg/L
CCNC(=O)c1noc(-c2cc(-c3ccc(C)cc3)c(O)cc2O)c1-c1ccc(CNC2CCOCC2)cc1 | > 64 mg/L | > 64 mg/L | > 64 mg/L | > 64 mg/L | > 64 mg/L | > 64 mg/L
CCNC(=O)c1noc(-c2cc(-c3ccc(C(C)C)cc3)c(O)cc2O)c1-c1ccc(CN2CCOCC2)cc1 | > 64 mg/L | > 64 mg/L | > 64 mg/L | > 64 mg/L | > 64 mg/L | > 64 mg/L
Cc1ccc(-c2cc(-c3onc(C(=O)NC4COC4)c3-c3ccc(CN4CCCCC4)cc3)c(O)cc2O)cc1 | > 64 mg/L | > 64 mg/L | > 64 mg/L | 32 mg/L | > 64 mg/L | > 64 mg/L
CCNC(=O)c1noc(-c2cc(-c3ccc(C)cc3)c(O)cc2O)c1-c1ccc(CNC2CCCC2)cc1 | > 64 mg/L | > 64 mg/L | > 64 mg/L | > 64 mg/L | > 64 mg/L | > 64 mg/L
CCN(CC)C(=O)c1noc(-c2cc(-c3ccc(C)cc3)c(O)cc2O)c1-c1ccc(CN2CCOCC2)cc1 | 8 mg/L | 8 mg/L | 16 mg/L | 8 mg/L | 8 mg/L | 8 mg/L
CCNC(=O)c1noc(-c2cc(-c3ccc(OC(F)(F)F)cc3)c(O)cc2O)c1-c1ccc(CN2CCOCC2)cc1 | > 64 mg/L | > 64 mg/L | > 64 mg/L | > 64 mg/L | > 64 mg/L | > 64 mg/L
CCNC(=O)c1noc(-c2cc(-c3ccc(F)cc3)c(O)cc2O)c1-c1ccc(CN2CCOCC2)cc1 | 1 mg/L | 16 mg/L | 16 mg/L | 2 mg/L | 16 mg/L | 4 mg/L
CCNC(=O)c1noc(-c2cc(-c3cccc(C)c3)c(O)cc2O)c1-c1ccc(CN2CCOCC2)cc1 | 0.25 mg/L | 1 mg/L | 1 mg/L | 0.5 mg/L | 0.5 mg/L | 0.25 mg/L
